The test system of this experiment is pepper plants. In words: Iron assimilation and development of pepper plants cultivated in hydroponia. Format: in vivo. As to the method: Four different treatments are presented that are applied to peppers: • 1. The control received a nutritive solution containing different nutrients. • 2. The treatment AIA that received the same nutritive control solution was also treated with indol-acetic acid (natural auxin) at a dose of 10^−6 M. • 3. […] The treatment IND2 that received the same nutritive control solution was also treated with the composition of Example 1 at a dose of 10^−9 M. The pepper plants were cultivated in hydroponia.

The mark [1] stands for this setting: dose 10^−6 M in nutritive solution.

This note sets out measurements from US20060234866A1, “Formulations with the capacity to increase the efficiency of plants to assimilate different mineral nutrients, especially iron, in normal conditions and in conditions of deficiency of potentially assimilable iron” (Inabonos, S.A., a Spanish joint venture company, priority 2005, published 2006).

The structures appear in SMILES notation.

Take `O=C(O)Cc1c[nH]c2ccccc12` [AIA, indol-acetic acid]: under setting [1], the “Assimilated Fe, leaves” value is on record as 0.335 mg plant^−1; the “Assimilated Fe, root” value was found to be 2.90 mg plant^−1; the “Dry matter, leaves” value worked out at 4.04 g plant^−1; the “Dry matter, root” value is listed as 1.43 g plant^−1. Further, the “Dry matter, stem” value under setting [1] was 1.09 g plant^−1. For the same molecule, where the note is “dose 10^−6 M, control = 100”, the “Assimilated Fe, leaves (% of control)” value amounted to 103.4%; the “Assimilated Fe, root (% of control)” value was found to be 109.8%; the “Dry matter, leaves (% of control)” value stood at 136%; the “Dry matter, root (% of control)” value was determined as 130%. The “Dry matter, stem (% of control)” value (dose 10^−6 M, control = 100) amounted to 138%. In addition, where the note is “versus control”, the “assimilation and translocation of iron (in words)” value is on record as “no significant effects”; the “biostimulant effect (in words)” value is on record as “presents a biostimulant effect”.
